From ChEMBL document CHEMBL1268812, “Piperidine-based renin inhibitors: upper chain optimization” (Bioorg Med Chem Lett, 2010)

Legend:
Conditions in all cases: rat, po, 3 mg/kg
in vivo [1] = experiment: in vivo
Description: Half life in transgenic rat harboring human angiotensinogen and human renin gene at 3 mg/kg, po

in vivo [2] = experiment: in vivo; remark: listed apart in the source
in vivo [3] = experiment: in vivo; remark: listed apart in the source
Description: Clearance in transgenic rat harboring human angiotensinogen and human renin gene at 3 mg/kg, po

| half-life (in vivo [1]) | bioavailability (in vivo [2]) | CL/F (in vivo [3]) | Structure (SMILES) |
| --- | --- | --- | --- |
| 3.6 h | 28% | 29 mL/min/kg | COCCCc1ccc(Cl)c(CN(C(=O)[C@H]2CNCC[C@@H]2c2ccc(OCCOc3c(Cl)cc(C)cc3Cl)nc2)C2CC2)c1 |
| 5.8 h | 35% | 21 mL/min/kg | COCCc1ccc(Cl)c(CN(C(=O)[C@H]2CNCC[C@@H]2c2ccc(OCCOc3c(Cl)cc(C)cc3Cl)nc2)C2CC2)c1 |
| 5.6 h | 8% | 35 mL/min/kg | COCCc1ccc(Cl)c(CN(C(=O)[C@H]2CNCC[C@@H]2c2ccc(N3CC[C@@H](Oc4c(Cl)cc(C)cc4Cl)C3)nc2)C2CC2)c1 |
